{
  "source": "ChEMBL document CHEMBL1201862",
  "about": "“PubChem BioAssay data set” (2004)",
  "experiment_in_all_cases": "DTP human tumour cell line panel, 48 h",
  "key": {"BT-549": {"system": "BT-549"}, "786-0": {"system": "786-0"}, "SK-OV-3": {"system": "SK-OV-3"}, "A549": {"system": "A549"}, "CAKI-1": {"system": "CAKI-1"}, "LOX IMVI": {"system": "LOX IMVI"}, "SW-620": {"system": "SW-620"}, "MDA-N": {"system": "MDA-N"}, "UACC-62": {"system": "UACC-62"}, "T47D": {"system": "T47D"}, "SN12C": {"system": "SN12C"}, "MOLT-4": {"system": "MOLT-4"}, "HL-60": {"system": "HL-60"}, "DLD-1": {"system": "DLD-1"}, "MDA-MB-231": {"system": "MDA-MB-231"}, "NCI-H226": {"system": "NCI-H226"}, "SK-MEL-2": {"system": "SK-MEL-2"}, "SK-MEL-28": {"system": "SK-MEL-28"}, "SF-539": {"system": "SF-539"}, "IGROV-1": {"system": "IGROV-1"}},
  "note": "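A five-concentration, 48-hour dose response in 96-well plates underlies each endpoint, interpolated linearly between surrounding concentrations. GI50: concentration for 50% inhibition of growth.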 Calls of active or inactive are those of the source. No stated cut-off is given here; in the data, active = GI50 up to about 1.1 µM and inactive = higher.",
  "data": [
    {"smiles": "CCCCNCC(=O)O[C@]1(CC)C(=O)OCc2c1cc1n(c2=O)Cc2cc3ccccc3nc2-1", "values": [
      {"measurement": "GI50", "setting": "BT-549", "value": "0.391 µM (active)"},
      {"measurement": "GI50", "setting": "786-0", "value": "0.0482 µM (active)"},
      {"measurement": "GI50", "setting": "SK-OV-3", "value": "0.658 µM (active)"},
      {"measurement": "GI50", "setting": "A549", "value": "0.185 µM (active)"},
      {"measurement": "GI50", "setting": "CAKI-1", "value": "0.0647 µM (active)"},
      {"measurement": "GI50", "setting": "LOX IMVI", "value": "0.0721 µM (active)"},
      {"measurement": "GI50", "setting": "SW-620", "value": "0.0836 µM (active)"},
      {"measurement": "GI50", "setting": "MDA-N", "value": "2.11 µM (inactive)"},
      {"measurement": "GI50", "setting": "UACC-62", "value": "0.0578 µM (active)"},
      {"measurement": "GI50", "setting": "T47D", "value": "0.219 µM (active)"},
      {"measurement": "GI50", "setting": "SN12C", "value": "0.0622 µM (active)"},
      {"measurement": "GI50", "setting": "MOLT-4", "value": "0.017 µM (active)"},
      {"measurement": "GI50", "setting": "HL-60", "value": "0.084 µM (active)"},
      {"measurement": "GI50", "setting": "DLD-1", "value": "3.3 µM (inactive)"},
      {"measurement": "GI50", "setting": "MDA-MB-231", "value": "29.9 µM (inactive)"},
      {"measurement": "GI50", "setting": "NCI-H226", "value": "0.105 µM (active)"},
      {"measurement": "GI50", "setting": "SK-MEL-2", "value": "3.14 µM (inactive)"},
      {"measurement": "GI50", "setting": "SK-MEL-28", "value": "2.17 µM (inactive)"},
      {"measurement": "GI50", "setting": "SF-539", "value": "0.0832 µM (active)"},
      {"measurement": "GI50", "setting": "IGROV-1", "value": "2.3 µM (inactive)"}
    ]},
    {"smiles": "CCOC(=O)Nc1ccc2c(c1)N(C(=O)CCN(CC)CC)c1ccccc1S2", "note": "[ETHACIZINE]", "values": [
      {"measurement": "GI50", "setting": "BT-549", "value": "28.1 µM (inactive)"},
      {"measurement": "GI50", "setting": "786-0", "value": "24.4 µM (inactive)"},
      {"measurement": "GI50", "setting": "SK-OV-3", "value": "35 µM (inactive)"},
      {"measurement": "GI50", "setting": "A549", "value": "34.3 µM (inactive)"},
      {"measurement": "GI50", "setting": "CAKI-1", "value": "36.4 µM (inactive)"},
      {"measurement": "GI50", "setting": "LOX IMVI", "value": "17.6 µM (inactive)"},
      {"measurement": "GI50", "setting": "SW-620", "value": "25.4 µM (inactive)"},
      {"measurement": "GI50", "setting": "UACC-62", "value": "21.5 µM (inactive)"},
      {"measurement": "GI50", "setting": "T47D", "value": "27.4 µM (inactive)"},
      {"measurement": "GI50", "setting": "SN12C", "value": "28.6 µM (inactive)"},
      {"measurement": "GI50", "setting": "MOLT-4", "value": "22.9 µM (inactive)"},
      {"measurement": "GI50", "setting": "HL-60", "value": "18.9 µM (inactive)"},
      {"measurement": "GI50", "setting": "DLD-1", "value": "29.1 µM (inactive)"},
      {"measurement": "GI50", "setting": "MDA-MB-231", "value": "26.1 µM (inactive)"},
      {"measurement": "GI50", "setting": "NCI-H226", "value": "51.2 µM (inactive)"},
      {"measurement": "GI50", "setting": "SK-MEL-2", "value": "22 µM (inactive)"},
      {"measurement": "GI50", "setting": "SK-MEL-28", "value": "28.5 µM (inactive)"},
      {"measurement": "GI50", "setting": "SF-539", "value": "21.1 µM (inactive)"},
      {"measurement": "GI50", "setting": "IGROV-1", "value": "40.5 µM (inactive)"}
    ]},
    {"smiles": "CCN(CC)CC[n+]1ccc2c(C)c3[nH]c4ccc(O)cc4c3c(C)c2c1", "values": [
      {"measurement": "GI50", "setting": "BT-549", "value": "12.7 µM (inactive)"},
      {"measurement": "GI50", "setting": "786-0", "value": "3.05 µM (inactive)"},
      {"measurement": "GI50", "setting": "SK-OV-3", "value": "10.4 µM (inactive)"},
      {"measurement": "GI50", "setting": "A549", "value": "1.35 µM (inactive)"},
      {"measurement": "GI50", "setting": "CAKI-1", "value": "13.8 µM (inactive)"},
      {"measurement": "GI50", "setting": "LOX IMVI", "value": "10.8 µM (inactive)"},
      {"measurement": "GI50", "setting": "SW-620", "value": "5.57 µM (inactive)"},
      {"measurement": "GI50", "setting": "MDA-N", "value": "8.89 µM (inactive)"},
      {"measurement": "GI50", "setting": "UACC-62", "value": "6.56 µM (inactive)"},
      {"measurement": "GI50", "setting": "T47D", "value": "2.67 µM (inactive)"},
      {"measurement": "GI50", "setting": "SN12C", "value": "0.414 µM (active)"},
      {"measurement": "GI50", "setting": "MOLT-4", "value": "0.0473 µM (active)"},
      {"measurement": "GI50", "setting": "HL-60", "value": "2.88 µM (inactive)"},
      {"measurement": "GI50", "setting": "DLD-1", "value": "11.6 µM (inactive)"},
      {"measurement": "GI50", "setting": "MDA-MB-231", "value": "10.6 µM (inactive)"},
      {"measurement": "GI50", "setting": "NCI-H226", "value": "1.05 µM (active)"},
      {"measurement": "GI50", "setting": "SK-MEL-2", "value": "16 µM (inactive)"},
      {"measurement": "GI50", "setting": "SK-MEL-28", "value": "7.13 µM (inactive)"},
      {"measurement": "GI50", "setting": "SF-539", "value": "3.89 µM (inactive)"},
      {"measurement": "GI50", "setting": "IGROV-1", "value": "6.44 µM (inactive)"}
    ]},
    {"smiles": "O=C1NC(Cc2ccc(O)cc2)C(=O)N2CCCC12", "note": "(stereo not given)", "values": [
      {"measurement": "GI50", "setting": "786-0", "value": "> 100 µM (inactive)"},
      {"measurement": "GI50", "setting": "SK-OV-3", "value": "> 100 µM (inactive)"},
      {"measurement": "GI50", "setting": "A549", "value": "> 100 µM (inactive)"},
      {"measurement": "GI50", "setting": "CAKI-1", "value": "> 100 µM (inactive)"},
      {"measurement": "GI50", "setting": "LOX IMVI", "value": "> 100 µM (inactive)"},
      {"measurement": "GI50", "setting": "SW-620", "value": "> 100 µM (inactive)"},
      {"measurement": "GI50", "setting": "UACC-62", "value": "> 100 µM (inactive)"},
      {"measurement": "GI50", "setting": "SN12C", "value": "> 100 µM (inactive)"},
      {"measurement": "GI50", "setting": "MOLT-4", "value": "> 100 µM (inactive)"},
      {"measurement": "GI50", "setting": "HL-60", "value": "> 100 µM (inactive)"},
      {"measurement": "GI50", "setting": "DLD-1", "value": "> 100 µM (inactive)"},
      {"measurement": "GI50", "setting": "NCI-H226", "value": "> 100 µM (inactive)"},
      {"measurement": "GI50", "setting": "SK-MEL-2", "value": "> 100 µM (inactive)"},
      {"measurement": "GI50", "setting": "SK-MEL-28", "value": "> 100 µM (inactive)"},
      {"measurement": "GI50", "setting": "SF-539", "value": "> 100 µM (inactive)"},
      {"measurement": "GI50", "setting": "IGROV-1", "value": "> 100 µM (inactive)"}
    ]},
    {"smiles": "COc1ccc(/C=C2\\CCC(Cc3ccccc3)(CN(C)C)C2=O)cc1", "note": "(stereo not given)", "values": [
      {"measurement": "GI50", "setting": "BT-549", "value": "68.5 µM (inactive)"},
      {"measurement": "GI50", "setting": "786-0", "value": "41.7 µM (inactive)"},
      {"measurement": "GI50", "setting": "SK-OV-3", "value": "> 100 µM (inactive)"},
      {"measurement": "GI50", "setting": "A549", "value": "50.5 µM (inactive)"},
      {"measurement": "GI50", "setting": "CAKI-1", "value": "48 µM (inactive)"},
      {"measurement": "GI50", "setting": "LOX IMVI", "value": "24.5 µM (inactive)"},
      {"measurement": "GI50", "setting": "SW-620", "value": "26.7 µM (inactive)"},
      {"measurement": "GI50", "setting": "MDA-N", "value": "38.3 µM (inactive)"},
      {"measurement": "GI50", "setting": "UACC-62", "value": "36.9 µM (inactive)"},
      {"measurement": "GI50", "setting": "T47D", "value": "46.7 µM (inactive)"},
      {"measurement": "GI50", "setting": "SN12C", "value": "61.2 µM (inactive)"},
      {"measurement": "GI50", "setting": "MOLT-4", "value": "25 µM (inactive)"},
      {"measurement": "GI50", "setting": "HL-60", "value": "19.7 µM (inactive)"},
      {"measurement": "GI50", "setting": "DLD-1", "value": "26.4 µM (inactive)"},
      {"measurement": "GI50", "setting": "MDA-MB-231", "value": "98.9 µM (inactive)"},
      {"measurement": "GI50", "setting": "NCI-H226", "value": "42 µM (inactive)"},
      {"measurement": "GI50", "setting": "SK-MEL-2", "value": "60.4 µM (inactive)"},
      {"measurement": "GI50", "setting": "SK-MEL-28", "value": "> 72.9 µM (inactive)"},
      {"measurement": "GI50", "setting": "SF-539", "value": "57 µM (inactive)"},
      {"measurement": "GI50", "setting": "IGROV-1", "value": "> 100 µM (inactive)"}
    ]}
  ]
}
